Measured values from ChEMBL document CHEMBL1201862, “PubChem BioAssay data set” (2004).
Calls of active or inactive are those of the source.

Assays:
[1] = target: T1, RNA-binding protein pos-1 (Caenorhabditis elegans, UniProt G5EF15); assay: inhibitors of POS-1/mex-3 RNA binding, dose response, biochemical, fluorescence polarization (AID 1964);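 also: purified POS-1 fused to maltose binding protein made in E. coli; potency of compounds blocking POS-1 binding to fluorescent RNA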
T1 sequence (G5EF15 whole entry): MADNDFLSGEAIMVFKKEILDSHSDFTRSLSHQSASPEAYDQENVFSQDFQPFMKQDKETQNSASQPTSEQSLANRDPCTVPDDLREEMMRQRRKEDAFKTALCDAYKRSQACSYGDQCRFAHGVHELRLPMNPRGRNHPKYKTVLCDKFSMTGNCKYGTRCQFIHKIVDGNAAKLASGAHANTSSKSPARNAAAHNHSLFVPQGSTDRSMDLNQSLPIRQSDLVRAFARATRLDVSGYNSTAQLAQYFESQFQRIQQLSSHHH

Caspase-6 = target: T2, Caspase-6 (Homo sapiens, UniProt P55212); assay: human caspase-6 inhibitors, dose response, biochemical, VEID-R110 fluorescence, cherry-pick (AID 720632)
T2 sequence (P55212 whole entry): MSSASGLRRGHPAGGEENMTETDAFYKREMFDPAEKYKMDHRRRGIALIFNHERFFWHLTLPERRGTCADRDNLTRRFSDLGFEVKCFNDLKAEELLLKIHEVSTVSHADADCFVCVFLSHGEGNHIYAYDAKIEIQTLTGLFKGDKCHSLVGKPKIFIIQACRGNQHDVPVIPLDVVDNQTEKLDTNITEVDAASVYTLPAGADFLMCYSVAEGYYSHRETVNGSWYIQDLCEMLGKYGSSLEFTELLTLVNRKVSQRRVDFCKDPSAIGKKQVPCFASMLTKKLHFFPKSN

[2] = target: T3, Histone-lysine N-methyltransferase NSD2 (Homo sapiens, UniProt O96028); format: biochemical
T3 sequence (O96028 whole entry): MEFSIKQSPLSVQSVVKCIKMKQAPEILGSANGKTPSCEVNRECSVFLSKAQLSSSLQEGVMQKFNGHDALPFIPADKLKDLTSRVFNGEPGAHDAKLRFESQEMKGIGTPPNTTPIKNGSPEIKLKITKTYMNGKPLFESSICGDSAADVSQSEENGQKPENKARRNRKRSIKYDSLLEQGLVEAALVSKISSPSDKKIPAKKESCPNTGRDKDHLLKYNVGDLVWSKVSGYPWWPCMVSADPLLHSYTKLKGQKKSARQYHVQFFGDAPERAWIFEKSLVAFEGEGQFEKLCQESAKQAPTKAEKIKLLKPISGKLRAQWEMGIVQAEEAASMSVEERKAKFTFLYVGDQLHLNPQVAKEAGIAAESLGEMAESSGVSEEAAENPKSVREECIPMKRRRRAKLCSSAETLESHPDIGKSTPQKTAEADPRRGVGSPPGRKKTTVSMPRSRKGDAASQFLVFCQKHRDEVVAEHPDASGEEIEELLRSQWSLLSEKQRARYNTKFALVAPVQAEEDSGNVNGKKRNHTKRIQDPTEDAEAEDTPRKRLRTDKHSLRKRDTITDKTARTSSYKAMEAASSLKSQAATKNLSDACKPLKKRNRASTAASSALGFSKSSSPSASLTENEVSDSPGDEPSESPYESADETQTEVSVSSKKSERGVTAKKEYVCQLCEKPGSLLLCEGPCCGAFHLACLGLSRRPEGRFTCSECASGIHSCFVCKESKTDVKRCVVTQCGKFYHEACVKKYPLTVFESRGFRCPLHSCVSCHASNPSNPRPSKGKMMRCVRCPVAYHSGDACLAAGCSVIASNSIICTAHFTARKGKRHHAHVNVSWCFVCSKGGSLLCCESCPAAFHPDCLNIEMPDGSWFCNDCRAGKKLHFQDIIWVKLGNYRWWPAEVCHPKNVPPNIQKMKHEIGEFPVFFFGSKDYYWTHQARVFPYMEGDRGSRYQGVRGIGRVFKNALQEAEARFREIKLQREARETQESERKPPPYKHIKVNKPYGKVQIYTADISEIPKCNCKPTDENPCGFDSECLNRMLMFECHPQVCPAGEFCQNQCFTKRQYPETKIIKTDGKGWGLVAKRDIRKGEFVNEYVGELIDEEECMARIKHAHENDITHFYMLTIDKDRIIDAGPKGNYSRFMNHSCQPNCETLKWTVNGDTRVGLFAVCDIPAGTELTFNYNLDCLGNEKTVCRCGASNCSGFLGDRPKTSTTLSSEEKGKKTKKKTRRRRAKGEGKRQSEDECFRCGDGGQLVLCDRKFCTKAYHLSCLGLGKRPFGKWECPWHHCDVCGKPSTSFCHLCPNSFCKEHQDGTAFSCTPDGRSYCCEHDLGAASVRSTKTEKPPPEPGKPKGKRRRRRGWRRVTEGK

[3] = target: T4, Zinc finger protein mex-5 (Caenorhabditis elegans, UniProt Q9XUB2); assay: MEX-5/TCR-2 RNA interaction inhibitors, dose response, biochemical, C. elegans, fluorescence polarization (AID 1960)
T4 sequence (Q9XUB2 whole entry): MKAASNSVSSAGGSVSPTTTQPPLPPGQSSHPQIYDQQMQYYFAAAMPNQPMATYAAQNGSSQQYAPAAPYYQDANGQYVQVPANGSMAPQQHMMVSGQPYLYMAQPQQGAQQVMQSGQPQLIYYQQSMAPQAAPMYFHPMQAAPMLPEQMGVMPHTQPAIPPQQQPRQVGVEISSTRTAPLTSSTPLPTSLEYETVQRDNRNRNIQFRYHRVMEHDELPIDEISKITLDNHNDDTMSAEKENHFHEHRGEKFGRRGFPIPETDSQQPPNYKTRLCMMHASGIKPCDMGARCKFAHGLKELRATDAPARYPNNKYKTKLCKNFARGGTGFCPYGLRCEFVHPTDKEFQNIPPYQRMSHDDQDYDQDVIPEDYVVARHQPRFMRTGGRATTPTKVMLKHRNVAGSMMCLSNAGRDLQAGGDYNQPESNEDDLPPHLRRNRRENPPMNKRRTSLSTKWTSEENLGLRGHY

[4] = target: T5, Carboxy-terminal domain RNA polymerase II polypeptide A small phosphatase 1 (Homo sapiens, UniProt Q9GZU7); assay: inhibitors of CTDSP1, concentration-response testing, biochemical assay, absorbance-based, actives from ultra-high-throughput screening (AID 540297); format: functional
T5 sequence (Q9GZU7 whole entry): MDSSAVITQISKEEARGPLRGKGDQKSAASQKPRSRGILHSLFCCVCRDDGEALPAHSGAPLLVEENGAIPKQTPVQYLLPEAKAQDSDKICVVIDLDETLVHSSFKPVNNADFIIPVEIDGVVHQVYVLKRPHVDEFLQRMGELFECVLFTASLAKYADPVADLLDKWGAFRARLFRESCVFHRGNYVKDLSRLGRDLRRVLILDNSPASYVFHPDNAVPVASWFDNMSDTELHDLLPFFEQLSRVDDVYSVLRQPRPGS

[5] = HepG2 cell cytotoxicity, dose response, cytotoxicity control, cherry-picked samples (AID 1159577); format: functional, cell-based
[6] = P. falciparum ATP4 D1247Y mutant growth inhibitors, dose response, NITD609-resistant line, SYBR Green, dry powder (AID 1159571); format: functional, cell-based;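 also: parasites synchronized at ring stage by sorbitol before testing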
[7] = HepG2 cell cytotoxicity, dose response, cytotoxicity control, plate reader, dry powder samples (AID 1159569); format: functional, cell-based;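 also: inhibitor potency with signal falling toward the positive control level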
[8] = P. falciparum Dd2 growth inhibitors, dose response, SYBR Green, dry powder samples (AID 1159566); format: functional, cell-based;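 also: potency for growth inhibition with lower SYBR green DNA signal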
[9] = P. falciparum Dd2 growth inhibitors, dose response, SYBR Green, cherry-picked samples (AID 1159567); format: functional, cell-based
[10] = P. falciparum 3D7-ScDHODH growth inhibitors, dose response, SYBR Green, dry powder samples (AID 1159570); format: functional, cell-based;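 also: parasite growth measured after 72 hours of compound exposure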
[11] = THP-1 cell cytotoxicity, dose response, cytotoxicity control for Vif-APOBEC3G degradation inhibitor project, THP-1 cells (AID 1117359); format: functional; conditions: Human immunodeficiency virus 1, THP-1
[12] = Luminescence Cell-Based Dose Confirmation HTS to Identify Activators of 5'UTR Stem-Loop Driven Alpha-Synuclein mRNA Translation in H4 Neuroglioblastoma Cells. [Related pubchem assays: 1829 (Project Summary), 1814 (Primary HTS)]; format: functional
[13] = Luminescence Cell-Based Dose Response to Identify Activators of 5'UTR Stem-Loop Driven Prion Protein mRNA Translation in H4-C Neuroglioblastoma Cells. [Related pubchem assays: 1829 (Project Summary), 1814 (Primary HTS)]; format: functional
[14] = Luminescence Cell-Based Dose Response HTS to Identify Activators of Luciferase Translation or Activity in H4 […] Cells. [Related pubchem assays: 1829 (Project Summary), 1814 (Primary HTS)]; format: functional
H4 = assay: Luminescence Cell-Based Dose Response HTS to Identify Activators of 5'UTR Stem-Loop Driven Prion Protein mRNA Translation in H4 Neuroglioblastoma Cells. [Related pubchem assays: 1829 (Project Summary), 1814 (Primary HTS)]; format: functional; conditions: Homo sapiens
[15] = Luminescence Cell-Based Dose Response to Identify Activators of Luciferase Translation or Activity in H4-C Neuroglioblastoma Cells. [Related pubchem assays: 1829 (Project Summary), 1814 (Primary HTS)]; format: functional
[16] = Luminescence Cell-Based Dose Confirmation to Identify Activators of 5'UTR Stem-Loop Driven Alpha-Synuclein mRNA Translation in H4 Neuroglioblastoma Cells. [Related pubchem assays: 1829 (Project Summary), 1814 (Primary HTS)]; format: functional
[17] = target: T6, Rac GTPase-activating protein 1 (Homo sapiens, UniProt Q9H0H5); assay: MgcRacGAP GTPase-activating activity inhibitors, confirmation, biochemical, ADP Hunter fluorescence, primary and confirmatory (AID 624330); format: functional
T6 sequence (Q9H0H5 whole entry): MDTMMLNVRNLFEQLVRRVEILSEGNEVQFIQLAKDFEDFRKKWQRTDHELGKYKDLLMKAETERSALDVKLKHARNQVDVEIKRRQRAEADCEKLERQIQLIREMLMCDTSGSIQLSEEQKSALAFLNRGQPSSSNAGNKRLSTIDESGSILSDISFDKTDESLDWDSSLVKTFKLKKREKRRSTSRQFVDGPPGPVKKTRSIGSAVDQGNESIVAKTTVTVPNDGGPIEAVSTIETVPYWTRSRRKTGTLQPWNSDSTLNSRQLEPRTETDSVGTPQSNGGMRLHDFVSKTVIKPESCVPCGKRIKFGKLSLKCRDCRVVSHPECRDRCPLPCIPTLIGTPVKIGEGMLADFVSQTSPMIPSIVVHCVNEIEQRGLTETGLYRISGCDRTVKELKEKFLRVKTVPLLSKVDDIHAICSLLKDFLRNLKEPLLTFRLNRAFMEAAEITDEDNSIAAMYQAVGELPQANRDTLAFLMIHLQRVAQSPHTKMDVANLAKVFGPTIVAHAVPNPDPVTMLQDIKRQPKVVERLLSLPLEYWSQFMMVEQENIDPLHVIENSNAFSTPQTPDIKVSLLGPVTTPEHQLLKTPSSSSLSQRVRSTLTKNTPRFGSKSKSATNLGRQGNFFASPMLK

HeLa = assay: HeLa cell cytotoxicity, dose response, cytotoxicity control for MITF activator project, CellTiter-Glo luminescence, cherry-pick samples (AID 540259); format: functional, cell-based; conditions: Homo sapiens

Cc1cc(C=O)c(C)n1-c1cc(C(=O)O)cc(C(=O)O)c1
> 300 µM (not active): EC50 [1] | EC50 [3]
inactive: AC50 [2] > 20 µM
active: AC50 (Caspase-6) 1.71 µM | IC50 [4] 3.16 µM

C[C@H](CO)N1C[C@H](C)[C@@H](CN(C)C(=O)CCCN(C)C)OCc2cnnn2CCCC1=O
inactive: AC50 [5] > 42 µM

COc1ccc(C#Cc2cccc(-c3nc(C(=O)Nc4ccc(-c5ccccc5)cc4)cc4c3[C@@H](CCO)N([S+]([O-])C(C)(C)C)C4)c2)cc1OC (stereo not given in full)
active: AC50 [6] 0.621 µM | AC50 [7] 24.1 µM | AC50 [8] 0.486 µM | AC50 [9] 0.995 µM | AC50 [10] 1.12 µM
inactive: AC50 [5] > 39 µM

COc1cccc(CN2C[C@@H]3N[C@H](C2)[C@@H]3c2ccc(-c3ccc(C#N)cc3)cc2)c1
active: AC50 [9] 3.09 µM | AC50 [5] 9.63 µM

N#C[C@@H]1[C@@H](c2ccccc2C2=CCCC2)[C@@H](CO)N1C(=O)NC1CCCC1
active: AC50 [6] 0.744 µM | AC50 [7] 56.8 µM | AC50 [8] 0.592 µM | AC50 [9] 0.791 µM | AC50 [10] 10.9 µM

COc1ccc(OC)c(NC(=O)CSc2nc3ccccc3c(=O)n2CC2CCCO2)c1 (stereo not given)
active: CC50 [11] > 40 µM

Cc1ccc(-n2c(C)csc2=N)cc1
active: EC50 [12] < 0.1 µM | EC50 [13] 0.373 µM | EC50 [14] 0.102 µM | EC50 (H4) 0.547 µM | EC50 [15] 8.21 µM | EC50 [16] 0.421 µM

Nc1c(C(=O)N2CCCCC2)sc2nc3c(cc12)CCCC3
active: EC50 [13] 0.682 µM | EC50 [14] < 0.1 µM | EC50 [15] 0.923 µM | EC50 [16] 0.322 µM

OC[C@@H]1Nc2ccc(C#Cc3cccc(F)c3)cc2[C@H]2NCC[C@@H]12
active: AC50 [6] 2.34 µM | AC50 [7] 17.5 µM | AC50 [8] 0.804 µM | AC50 [9] 3.01 µM | AC50 [5] 25.6 µM | AC50 [10] 1.15 µM

COc1cc(Br)c(CNc2cc(C)ccc2C)cc1OC
active: IC50 [17] 97.4 µM | CC50 [11] 12.6 µM

CN(C)/C=C1\C(=O)N(c2ccc(Cl)cc2)CS1(=O)=O
active: EC50 [12] < 0.1 µM | EC50 [13] 1.52 µM | EC50 [14] 63.6 µM | EC50 [15] 0.648 µM | EC50 [16] 0.697 µM
> 120 µM (not active): EC50 (H4)

CCCN1[C@H](CO)[C@H](c2ccc(C3=CCCC3)cc2)[C@H]1CN(C(C)=O)C1CCCC1
active: AC50 [6] 1.6 µM | AC50 [7] 72.1 µM | AC50 [8] 1.75 µM | AC50 [9] 1.92 µM | AC50 [10] 3.26 µM

Cc1cc2cc(OCc3ccccc3)ccc2n1C
active: AC50 (HeLa) 97.8 µM | EC50 [13] 0.383 µM | EC50 (H4) < 0.1 µM | EC50 [15] 0.393 µM | EC50 [16] 0.217 µM

NCCC(=O)N1c2ccccc2Sc2ccccc21
active: CC50 [11] > 40 µM
